Measured values: US20110039763A1, “TARGETED ANTIMICROBIAL MOIETIES” (C3 JIAN, INC., priority 2009, published 2011)
Entries after “also recorded” stand apart in the source; their conditions may differ.

Key:
microorganisms [1] = assay: Peptide activities: targeting/binding, antimicrobial, growth or phenotype altering (Tables 7, 8); assay type: cell-based; conditions: peptides having multiple activities
microorganisms [2] = assay: Morphology, biofilm and growth disrupting peptides (Table 5); assay type: cell-based; design: key: A: Peptide aggregates; B: Less hyphal formation; Clumps; Diffuse clumps and small polyps; F: Diffuse growth; H: Thin; I: Growth inhibition; Microcolony formation; Rippled; Small polyps; Thick; W: Halo formation on top, microlonies on bottom
Description: In certain embodiments peptides that induce alterations in phenotype or other biological activities can also be used as antimicrobial effector moieties.

microorganisms [3] = assay: Targeting peptide binding to target microorganisms (Tables 3, 10, 12); conditions: microorganism(s) the targeting peptide binds; binding in aqueous buffers varied with peptide solubility, preferably 1x PBS

PF-129: peptide having multiple activities (chain 1 MKLLARDPWVCAWNDIW; chain 2 MKLLARDPWVCAWNDIW; Peptide with targeting and/or antimicrobial activity)
Activities (microorganisms [1]): G B
Organism, effect: C. jeikeium (microorganisms [2]): C. jeikeium (R)
Organism, effect: S. epidermidis (microorganisms [2]): S. epidermidis (M)
Target(s) (microorganisms [3]): S. epidermidis and MRSA and E. faecalis and C. jeikeium and C. jejuni

PF-133: peptide having multiple activities (chain 1 GDPTAGQKPVECP; chain 2 GDPTAGQKPVECP; Peptide with targeting and/or antimicrobial activity)
Activities (microorganisms [1]): G B
Organism, effect: C. jeikeium (microorganisms [2]): C. jeikeium (R)
Target(s) (microorganisms [3]): S. epidermidis; also recorded: C. jeikeium; also recorded: C. jejuni; also recorded: M. smegmatis

PF-135: peptide having multiple activities (chain 1 PPARPARIPQTPTLHGASLFRQRS; chain 2 PPARPARIPQTPTLHGASLFRQRS; Peptide with targeting and/or antimicrobial activity)
Activities (microorganisms [1]): G B
Organism, effect: C. jeikeium (microorganisms [2]): C. jeikeium (R)
Target(s) (microorganisms [3]): S. epidermidis and M. luteus and E. coli and P. aeruginosa and MRSA and C. jeikeium and M. smegmatis

PF-144: peptide having multiple activities (chain 1 RSGQPVGRPSRRAWLR; chain 2 RSGQPVGRPSRRAWLR; Peptide with targeting and/or antimicrobial activity)
Activities (microorganisms [1]): G B
Organism, effect: S. pneumoniae (microorganisms [2]): S. pneumoniae (H)
Target(s) (microorganisms [3]): S. epidermidis and M. luteus and E. coli and C. albicans and MRSA and S. pneumoniae and E. faecalis and C. jeikeium

PF-149: peptide having multiple activities (chain 1 GKVSVLTRVPRSLGGAPANQ; chain 2 GKVSVLTRVPRSLGGAPANQ; Peptide with targeting and/or antimicrobial activity)
Activities (microorganisms [1]): G B
Organism, effect: MRSA (microorganisms [2]): MRSA (H)
Target(s) (microorganisms [3]): S. epidermidis and M. luteus and E. coli and MRSA and C. jeikeium

PF-153: peptide having multiple activities (chain 1 GILARADCSQIA; chain 2 GILARADCSQIA; Peptide with targeting and/or antimicrobial activity)
Activities (microorganisms [1]): G B
Organism, effect: C. jeikeium (microorganisms [2]): C. jeikeium (C)
Organism, effect: S. epidermidis (microorganisms [2]): S. epidermidis (M)
Target(s) (microorganisms [3]): M. luteus and P. mirabilis and E. coli and MRSA

PF-156: peptide having multiple activities (LITAEQPATAPIAGK; Peptide with targeting and/or antimicrobial activity)
Activities (microorganisms [1]): G B
Organism, effect: MRSA (microorganisms [2]): MRSA (H)
Target(s) (microorganisms [3]): S. epidermidis; also recorded: C. jeikeium

PF-164: peptide having multiple activities (EEVSRALAGIGLGLGCRIG; Peptide with targeting and/or antimicrobial activity)
Activities (microorganisms [1]): G B
Organism, effect: C. jeikeium (microorganisms [2]): C. jeikeium (R)
Target(s) (microorganisms [3]): S. epidermidis; also recorded: M. luteus; also recorded: E. coli; also recorded: C. jeikeium

PF-171: peptide having multiple activities (TQVTLCRTW; Peptide with targeting and/or antimicrobial activity)
Activities (microorganisms [1]): G B
Organism, effect: B. subtilis (microorganisms [2]): B. subtilis (D)
Organism, effect: C. jejuni (microorganisms [2]): C. jejuni (R)
Organism, effect: M. luteus (microorganisms [2]): M. luteus (R)
Organism, effect: MRSA (microorganisms [2]): MRSA (M)
Organism, effect: S. epidermidis (microorganisms [2]): S. epidermidis (R)
Organism, effect: S. pneumoniae (microorganisms [2]): S. pneumoniae (D)
Target(s) (microorganisms [3]): S. epidermidis; also recorded: E. coli; also recorded: P. aeruginosa; also recorded: S. pneumoniae

PF-173: peptide having multiple activities (AGRTAIVQGGG; Peptide with targeting and/or antimicrobial activity)
Activities (microorganisms [1]): G B
Organism, effect: C. jeikeium (microorganisms [2]): C. jeikeium (D)
Organism, effect: S. epidermidis (microorganisms [2]): S. epidermidis (A)
Target(s) (microorganisms [3]): S. epidermidis; also recorded: M. luteus; also recorded: P. mirabilis; also recorded: E. coli; also recorded: P. aeruginosa; also recorded: C. albicans; also recorded: C. jeikeium; also recorded: C. jejuni

PF-175: peptide having multiple activities (RRRPAGQRPEKASQAMIAA; Peptide with targeting and/or antimicrobial activity)
Activities (microorganisms [1]): G B
Organism, effect: B. subtilis (microorganisms [2]): B. subtilis (D)
Organism, effect: C. albicans (microorganisms [2]; C. albicans): C. albicans (B)
Organism, effect: C. jejuni (microorganisms [2]): C. jejuni (M)
Organism, effect: M. luteus (microorganisms [2]): M. luteus (S)
Organism, effect: S. pneumoniae (microorganisms [2]): S. pneumoniae (A)
Target(s) (microorganisms [3]): S. epidermidis; also recorded: E. faecalis

PF-176: peptide having multiple activities (RLTSNQFLTRITPFVFAQH; Peptide with targeting and/or antimicrobial activity)
Activities (microorganisms [1]): G B
Organism, effect: C. jeikeium (microorganisms [2]): C. jeikeium (D)
Organism, effect: M. luteus (microorganisms [2]): M. luteus (C)
Organism, effect: S. epidermidis (microorganisms [2]): S. epidermidis (C)
Target(s) (microorganisms [3]): S. epidermidis and M. luteus and P. mirabilis and E. coli and C. albicans and MRSA and E. faecalis and C. jeikeium

PF-180: peptide having multiple activities (SGLGDLGFSSEAK; Peptide with targeting and/or antimicrobial activity)
Activities (microorganisms [1]): G B
Organism, effect: S. epidermidis (microorganisms [2]): S. epidermidis (C)
Target(s) (microorganisms [3]): S. epidermidis and M. luteus and P. aeruginosa and C. albicans and MRSA and E. faecalis and C. jejuni and M. smegmatis

PF-186: peptide having multiple activities (DADKNLSLERDRFAWRVAAP; Peptide with targeting and/or antimicrobial activity)
Activities (microorganisms [1]): G B
Organism, effect: C. jeikeium (microorganisms [2]): C. jeikeium (A)
Organism, effect: S. epidermidis (microorganisms [2]): S. epidermidis (C)
Target(s) (microorganisms [3]): S. epidermidis and M. luteus and E. coli and P. aeruginosa and MRSA and C. jeikeium

PF-188: peptide having multiple activities (ARTFAGRLGTRYFGGLMRSTKA; Peptide with targeting and/or antimicrobial activity)
Activities (microorganisms [1]): G B
Organism, effect: C. jeikeium (microorganisms [2]): C. jeikeium (H)
Target(s) (microorganisms [3]): S. epidermidis and M. luteus and E. coli and C. albicans and MRSA and E. faecalis

PF-191: peptide having multiple activities (QFCNFAWLFLASNNAQVSALA; Peptide with targeting and/or antimicrobial activity)
Activities (microorganisms [1]): G B
Organism, effect: C. jeikeium (microorganisms [2]): C. jeikeium (R)
Organism, effect: MRSA (microorganisms [2]): MRSA (H)
Organism, effect: S. epidermidis (microorganisms [2]): S. epidermidis (A)
Target(s) (microorganisms [3]): E. coli; also recorded: P. aeruginosa; also recorded: C. jejuni

PF-192: peptide having multiple activities (VEEDEAPPPHY; Peptide with targeting and/or antimicrobial activity)
Activities (microorganisms [1]): G B
Organism, effect: S. epidermidis (microorganisms [2]): S. epidermidis (D)
Target(s) (microorganisms [3]): S. epidermidis; also recorded: M. luteus; also recorded: P. aeruginosa; also recorded: C. albicans; also recorded: E. faecalis; also recorded: C. jeikeium

PF-204: peptide having multiple activities (ALQKQDMNLPSVKNQLVFLKSTG; Peptide with targeting and/or antimicrobial activity)
Activities (microorganisms [1]): G B
Organism, effect: C. jeikeium (microorganisms [2]): C. jeikeium (D)
Organism, effect: M. luteus (microorganisms [2]): M. luteus (C)
Organism, effect: P. aeruginosa (microorganisms [2]; P. aeruginosa): P. aeruginosa (H)
Organism, effect: S. epidermidis (microorganisms [2]): S. epidermidis (C)
Target(s) (microorganisms [3]): S. epidermidis; also recorded: P. mirabilis; also recorded: E. coli; also recorded: P. aeruginosa; also recorded: C. albicans; also recorded: C. jejuni

PF-208: peptide having multiple activities (DAYHCHLVRSPDAHDLSMRIGFV; Peptide with targeting and/or antimicrobial activity)
Activities (microorganisms [1]): G B
Organism, effect: C. jeikeium (microorganisms [2]): C. jeikeium (A)
Organism, effect: S. epidermidis (microorganisms [2]): S. epidermidis (D)
Target(s) (microorganisms [3]): S. epidermidis and C. albicans and MRSA and S. pneumoniae and E. faecalis and C. jeikeium and C. jejuni

PF-212: peptide having multiple activities (NDSKASN; Peptide with targeting and/or antimicrobial activity)
Activities (microorganisms [1]): G B
Organism, effect: M. luteus (microorganisms [2]): M. luteus (M)
Target(s) (microorganisms [3]): M. luteus; also recorded: P. aeruginosa

PF-215: peptide having multiple activities (ELKITNYNVNTVLYRYYKWGNDLCE; Peptide with targeting and/or antimicrobial activity)
Activities (microorganisms [1]): G B
Organism, effect: M. luteus (microorganisms [2]): M. luteus (T)
Target(s) (microorganisms [3]): S. epidermidis; also recorded: M. luteus; also recorded: P. aeruginosa; also recorded: A. baumannii

PF-224: peptide having multiple activities (DYFYITLSQKNTF; Peptide with targeting and/or antimicrobial activity)
Activities (microorganisms [1]): G B
Organism, effect: M. luteus (microorganisms [2]): M. luteus (T)
Target(s) (microorganisms [3]): S. epidermidis; also recorded: P. aeruginosa; also recorded: A. baumannii

PF-233: peptide having multiple activities (DANAMARTTIAIVYILALIALTISYSL; Peptide with targeting and/or antimicrobial activity)
Activities (microorganisms [1]): G B
Organism, effect: S. epidermidis (microorganisms [2]): S. epidermidis (C)
Target(s) (microorganisms [3]): S. epidermidis; also recorded: M. luteus; also recorded: P. aeruginosa; also recorded: A. baumannii
